Data published in patent US10793568B2, “Hormone receptor modulators for treating metabolic conditions and disorders” (ARDELYX, INC., priority 2016, dated 2020).

Legend:
[1] = target: ligand binding domain of human FXR (Homo sapiens (Human), UniProt Q96RI1); assay: FXR ligand binding assay (LanthaScreen TR-FRET, SRC2-2 peptide recruitment); settings: for pEC50: -log EC50, concentration required to produce 50% activation; for Emax: extent of activation relative to GW4064, read-out: % Efficacy
[2] = target: human Farnesoid X receptor ligand-binding domain/Gal4 DNA binding domain chimera (Homo sapiens (Human), UniProt Q96RI1); assay: Cell-based assay of FXR activation (FXR-UAS-bla HEK 293T beta-lactamase reporter); settings: cellular FXR beta-lactamase reporter assay; for Emax: HEK-293T, extent of activation relative to GW4064, read-out: % Efficacy; for EC50: FXR-UAS-bla HEK 293T cells, 16 h, pEC50 = -log EC50
Outline: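 HEK 293T cells stably expressing a Gal4-fused human FXR LBD and a UAS-driven beta-lactamase reporter were incubated with serially diluted compounds for 16 h at 37 °C in phenol red-free DMEM with 2% charcoal-stripped FBS. CCF4 FRET read-out: excitation 409 nm, emission 447 nm. pEC50 comes from a 3-parameter logistic fit, and efficacy is given as % of GW4064.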

Sequence of human Farnesoid X receptor ligand-binding domain/Gal4 DNA binding domain chimera (Q96RI1 262-486, change not shown): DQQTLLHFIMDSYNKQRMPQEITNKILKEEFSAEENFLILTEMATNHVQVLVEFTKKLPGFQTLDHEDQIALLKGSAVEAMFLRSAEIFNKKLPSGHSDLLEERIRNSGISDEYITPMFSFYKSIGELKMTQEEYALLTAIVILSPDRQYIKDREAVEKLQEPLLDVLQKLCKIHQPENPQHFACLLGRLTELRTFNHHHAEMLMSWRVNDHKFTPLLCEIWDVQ
Sequence of human Farnesoid X receptor ligand-binding domain/Gal4 DNA binding domain chimera (P04386 1-147 partner): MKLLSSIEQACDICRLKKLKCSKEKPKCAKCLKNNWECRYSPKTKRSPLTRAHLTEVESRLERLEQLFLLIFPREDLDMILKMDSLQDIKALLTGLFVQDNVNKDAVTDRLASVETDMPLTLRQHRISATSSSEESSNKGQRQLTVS
Sequence of ligand binding domain of human FXR (Q96RI1 262-486): as the sequence (Q96RI1 262-486, change not shown) above

| SMILES | pEC50 [1] | Emax [1] | Emax [2] | EC50 [2] |
| --- | --- | --- | --- | --- |
| Cc1cccc(Cl)c1-c1noc(C2CC2)c1CO[C@@H]1C[C@@H]2C[C@H]1CN2c1nc2c([C@H]3CCOC3)cc(C(=O)O)cc2s1 [Compound I-272, 2-((1S,4S,5R)-5-((3-(2-chloro-6-methylphenyl)-5-cyclopropylisoxazol-4-yl)methoxy)-2-azabicyclo[2.2.1]heptan-2-yl)-4-((R)-tetrahydrofuran-3-yl)benzo[d]thiazole-6-carboxylic Acid] | 8.4 | 132% | 105% | 0.501 nM |
| CC(C)c1cccc(F)c1-c1noc(C2CC2)c1CO[C@@H]1C[C@@H]2C[C@H]1C(=O)N2c1ccc(C(=O)O)cc1 [Compound I-310, 4-[(1S,4R,5R)-5-({5-cyclopropyl-3-[2-fluoro-6-(propan-2-yl)phenyl]-1,2-oxazol-4-yl}methoxy)-3-oxo-2-azabicyclo[2.2.1]heptan-2-yl]benzoic Acid] | 7.6 | 155% | 115% | 7.94 nM |
| O=C(O)c1cnc(N2C[C@@H]3C[C@H]2C[C@H]3OCc2c(-c3c(Cl)cccc3Cl)noc2C2CC2)c(F)c1 [Compound I-129, 6-[(1S,4S,5R)-5-{[5-cyclopropyl-3-(2,6-dichlorophenyl)-1,2-oxazol-4-yl]methoxy}-2-azabicyclo[2.2.1]heptan-2-yl]-5-fluoropyridine-3-carboxylic Acid] |  | 152% | 101% | 3.98 nM |
| O=C(O)c1cc(O[C@H]2CCOC2)c2nc(N3C[C@@H]4C[C@H]3C[C@H]4OCc3c(-c4c(Cl)cccc4Cl)noc3C3CC3)sc2c1 [Compound I-260, 2-[(1S,4S,5R)-5-{[5-cyclopropyl-3-(2,6-dichlorophenyl)-1,2-oxazol-4-yl]methoxy}-2-azabicyclo[2.2.1]heptan-2-yl]-4-[(3S)-oxolan-3-yloxy]-1,3-benzothiazole-6-carboxylic Acid] | 8.8 | 148% | 103% | 0.398 nM |
| CS(=O)(=O)NC(=O)c1ccc(N2C[C@@H]3C[C@H]2C[C@H]3OC(=O)c2c(-c3c(Cl)cccc3Cl)noc2C2CC2)cc1 [Compound I-45, (1S,4S,5R)-2-[4-(methanesulfonylcarbamoyl)phenyl]-2-azabicyclo[2.2.1]heptan-5-yl 5-cyclopropyl-3-(2,6-dichlorophenyl)-1,2-oxazole-4-carboxylate] | 7.5 | 152% | 107% | 25.1 nM |
| CC(=O)NCCCCCCCCCCS(=O)(=O)NC(=O)c1ccc(N2C[C@@H]3C[C@H]2C[C@H]3OCc2c(-c3c(Cl)cccc3Cl)noc2C2CC2)c(F)c1 [Compound I-224, N-{10-[({4-[(1S,4S,5R)-5-{[5-cyclopropyl-3-(2,6-dichlorophenyl)-1,2-oxazol-4-yl]methoxy}-2-azabicyclo[2.2.1]heptan-2-yl]-3-fluorophenyl}formamido)sulfonyl]decyl}acetamide] | 8.1 | 155% | 104% | 2.51 nM |
| O=C(O)CNC(=O)c1ccc(N2C[C@@H]3C[C@H]2C[C@H]3OCc2c(-c3c(Cl)cccc3Cl)noc2C2CC2)cc1F [Compound I-167, 2-({4-[(1S,4S,5R)-5-{[5-cyclopropyl-3-(2,6-dichlorophenyl)-1,2-oxazol-4-yl]methoxy}-2-azabicyclo[2.2.1]heptan-2-yl]-2-fluorophenyl}formamido)acetic Acid] | 8.7 | 152% | 106% | 7.94 nM |
| O=C(O)c1cc(F)c2nc(N3C[C@@H]4C[C@H]3C[C@H]4OC(=O)c3c(C45CCC(CC4)CC5)noc3C3CC3)sc2c1 [Compound I-11, 2-[(1S,4S,5R)-5-(3-{bicyclo[2.2.2]octan-1-yl}-5-cyclopropyl-1,2-oxazole-4-carbonyloxy)-2-azabicyclo[2.2.1]heptan-2-yl]-4-fluoro-1,3-benzothiazole-6-carboxylic Acid] | 7.7 | 15% | 28% | 251 nM |
| O=C(O)c1cc([C@@H]2CCOC2)c2nc(N3C[C@@H]4C[C@H]3C[C@H]4OCc3c(-c4c(Cl)cccc4Cl)noc3C3CC3)sc2c1 [Compound I-252, 2-[(1S,4S,5R)-5-{[5-cyclopropyl-3-(2,6-dichlorophenyl)-1,2-oxazol-4-yl]methoxy}-2-azabicyclo[2.2.1]heptan-2-yl]-4-[(3S)-oxolan-3-yl]-1,3-benzothiazole-6-carboxylic Acid] | 8.6 | 135% | 107% | 0.2 nM |
| Cc1cccc(Cl)c1-c1noc(C2CC2)c1CO[C@@H]1C[C@@H]2C[C@H]1CN2c1ccc(CCC(=O)NS(=O)(=O)C2CC2)cc1F [Compound I-242, 3-(4-((1S,4S,5R)-5-((3-(2-chloro-6-methylphenyl)-5-cyclopropylisoxazol-4-yl)methoxy)-2-azabicyclo[2.2.1]heptan-2-yl)-3-fluorophenyl)-N-(cyclopropylsulfonyl)propanamide] | 8.2 | 182% | 97% | 10 nM |
| O=C(O)c1cc(F)c2nc(N3C[C@H]4C[C@@H]3C[C@H]4OC(=O)c3c(-c4c(Cl)cccc4Cl)noc3C3CC3)sc2c1 [Compound I-40, 2-[(1R,4R,5R)-5-[5-cyclopropyl-3-(2,6-dichlorophenyl)-1,2-oxazole-4-carbonyloxy]-2-azabicyclo[2.2.1]heptan-2-yl]-4-fluoro-1,3-benzothiazole-6-carboxylic Acid] | >4.5 |  |  | < 31600 nM |
| O=C(O)c1c(F)cc(N2C[C@@H]3C[C@H]2C[C@H]3OCc2c(-c3c(Cl)cccc3Cl)noc2C2CC2)cc1F [Compound I-104, 4-[(1S,4S,5R)-5-{[5-cyclopropyl-3-(2,6-dichlorophenyl)-1,2-oxazol-4-yl]methoxy}-2-azabicyclo[2.2.1]heptan-2-yl]-2,6-difluorobenzoic Acid] | 9.4 | 156% | 104% | 3.16 nM |
| COC(=O)c1ccc(N2C[C@@H]3C[C@H]2C[C@H]3OCc2c(-c3c(Cl)cccc3Cl)noc2C2CC2)cc1F [Compound I-177, methyl 4-[(1S,4S,5R)-5-{[5-cyclopropyl-3-(2,6-dichlorophenyl)-1,2-oxazol-4-yl]methoxy}-2-azabicyclo[2.2.1]heptan-2-yl]-2-fluorobenzoate] | 7.4 | 130% | 109% | 12.6 nM |
| O=C(O)c1cc(OC(F)(F)F)c2nc(N3C[C@@H]4C[C@H]3C[C@H]4OCc3c(-c4c(Cl)cccc4Cl)noc3C3CC3)sc2c1 [Compound I-16] | 8.8 | 174% | 109% | 0.0398 nM |
| O=C(O)c1cc(F)c2nc(N3C[C@@H]4C[C@H]3C[C@H]4OCc3c(-c4ccccc4C(F)(F)F)noc3C3CC3)sc2c1 [Compound I-19, 2-[(1S,4S,5R)-5-([5-cyclopropyl-3-[2-(trifluoromethyl)phenyl]-1,2-oxazol-4-yl]methoxy)-2-azabicyclo[2.2.1]heptan-2-yl]-4-fluoro-1,3-benzothiazole-6-carboxylic Acid] | 8 | 178% | 114% | 2 nM |
